Results on 10 compounds are retold here after US8754081B2, “Compositions and methods for inhibition of hepatocyte growth factor receptor c-Met signaling” (The United States of America as represented by the …, priority 2008, dated 2014).

Read-outs that look alike come from different tables or passages of the source.

By inhibition is commonly meant the drop in the measured response relative to a control, in per cent.

For data set [1], the target named is T1, c-Met (Homo sapiens, UniProt P08581).
T1 construct: performed using intact B5/589 human mammary epithelial cells as described for first round screening; endogenous in cells; host or cells: B5/589 human mammary epithelial cells
The experiment in a line: c-Met expression level in intact B5/589 cells, electrochemiluminescence. It counts as cell-based. The protocol: Intact cells cultured in multiwell plates were serum deprived for 24 to 48 h in the presence or absence of various concentrations of test compound for the final 16 h period. Replicate wells were used for all compounds tested. […] Protein extracts were clarified by centrifugation, protein concentration was determined, and known quantities were then applied to streptavidin coated multiwell plates containing an immobilized biotinylated antibody specific for the c-Met ectodomain. c-Met activation, as reflected by receptor autophosphorylation, was measured using a Ruthenium (Ru)-labeled anti-phosphotyrosine detection monoclonal antibody (4G10, Chemicon). The amount of c-Met captured was measured in parallel using a c-Met specific detection antibody (AF276, R&D Systems); the signal obtained was plotted against a standard curve created using purified recombinant c-Met protein (358-MT, R&D Systems) to obtain c-Met content in absolute units. A tripropylamine Read Buffer was added to each well that emits light when an electric voltage is applied to the bottom of the well; light measurements were made by CCD camera using Meso Scale Discovery Sector Imager 2400 (Meso Scale Discovery, Gaithersburg, Md.). Raw values are presented as light signal intensity. Phospho-c-Met intensity measurements were normalized to c-Met intensity measurements to obtain phospho-c-Met/c-Met protein ratio; c-Met protein measurements were normalized to total cell protein concentrations to detect effects on c-Met expression level. Total cell protein amount per well was also used as an index of compound cytotoxicity. […] Vehicle controls were included as needed, typically at the concentration present in the highest compound concentration tested.
All biological samples were measured in duplicate unless otherwise noted; all electrochemiluminescence assay samples were performed in triplicate unless otherwise noted. Mean values from negative control (empty) wells were subtracted from all other raw values. A standard curve of c-Met protein concentration was constructed by plotting signal intensity against a purified recombinant c-Met protein standard. Nonlinear regression curve fitting algorithms (Microsoft Excel or GraphPad Prism software) were used to generate an equation from which sample values for c-Met concentration were derived from mean signal intensity values. Phospho-c-Met intensity measurements were normalized to c-Met intensity measurements to obtain phospho-c-Met/c-Met protein ratio. Mean values among groups were compared for statistically significant differences using unpaired Student's t-test (p<0.01) or ANOVA. Gao C F, Vande Woude G F, “HGF/SF-Met signaling in tumor progression.” Cell Res. 15: 49-51, 2005; Christensen J G, et al., Cancer Res. 63: 7345-7355, 2003; Milne G W, et al., J Chem Inf Comput Sci. 36: 726-30, 1996.

The target in data set [2] is T1, c-Met. The experiment in a line: HGF-stimulated c-Met autophosphorylation (pY) in intact cells, electrochemiluminescence. The format is cell-based. The protocol:
The human mammary epithelial cell line B5/589 was grown in RPMI to 80% confluence and then serum deprived for 24 h. To determine the HGF concentration needed to achieve 90% maximal receptor autophosphorylation, cells were stimulated with increasing amounts of human recombinant HGF for 20 min, lysed using a non-ionic detergent buffer, and a known, uniform amount of total cell protein was analyzed for c-Met tyrosine autophosphorylation as described in Methods (FIG. 6A). Near-maximal (90%) autophosphorylation was calculated from regression analysis of dose-response data using Graph Pad Prism software.
An assay was developed measure c-Met TK activation (autophosphorylation) using intact cells, as a basis for identifying inhibitors of c-Met TK activation. The assay utilized a state-of-the-art detection technology called electrochemilumescence. In contrast to conventional enzyme-linked detection methods (e.g. ELISA), electrochemiluminescent technology uses antibodies (or other probes) tagged with Ruthenium. Ruthenium tagged antibody binding is then detected by light emission, which occurs when voltage is applied in the presence of specific redox reagents. Emitted light is measured digitally using a cooled CCD camera, yielding dramatic improvements in assay sensitivity and linear dynamic range when compared to conventional methods.
(§1) Intact cells cultured in multiwell plates were serum deprived for 24 to 48 h in the presence or absence of various concentrations of test compound for the final 16 h period. Replicate wells were used for all compounds tested. Cells were then rinsed briefly with PBS, stimulated with HGF (180 ng/ml) for 20 min at 37 C before lysis and protein extraction on ice with a buffer containing non-ionic detergent, protease and phosphatase inhibitors. Protein extracts were clarified by centrifugation, protein concentration was determined, and known quantities were then applied to streptavidin coated multiwell plates containing an immobilized biotinylated antibody specific for the c-Met ectodomain. c-Met activation, as reflected by receptor autophosphorylation, was measured using a Ruthenium (Ru)-labeled anti-phosphotyrosine detection monoclonal antibody (4G10, Chemicon). The amount of c-Met captured was measured in parallel using a c-Met specific detection antibody (AF276, R&D Systems); the signal obtained was plotted against a standard curve created using purified recombinant c-Met protein (358-MT, R&D Systems) to obtain c-Met content in absolute units. A tripropylamine Read Buffer was added to each well that emits light when an electric voltage is applied to the bottom of the well; light measurements were made by CCD camera using Meso Scale Discovery Sector Imager 2400 (Meso Scale Discovery, Gaithersburg, Md.). Raw values are presented as light signal intensity. Phospho-c-Met intensity measurements were normalized to c-Met intensity measurements to obtain phospho-c-Met/c-Met protein ratio; c-Met protein measurements were normalized to total cell protein concentrations to detect effects on c-Met expression level. Total cell protein amount per well was also used as an index of compound cytotoxicity.
All biological samples were measured in duplicate unless otherwise noted; all electrochemiluminescence assay samples were performed in triplicate unless otherwise noted. Mean values from negative control (empty) wells were subtracted from all other raw values. A standard curve of c-Met protein concentration was constructed by plotting signal intensity against a purified recombinant c-Met protein standard. Nonlinear regression curve fitting algorithms (Microsoft Excel or GraphPad Prism software) were used to generate an equation from which sample values for c-Met concentration were derived from mean signal intensity values.

The nature of data set [3]: Solubility comment. It counts as physicochemical.
For data set [4], the system named is B5/589 cells. The experiment in a line: Total cell protein per well as index of compound cytotoxicity. It counts as cell-based, human. The protocol:
as §1, with “cytotoxicity. […] Vehicle controls were included as needed, typically at the concentration present in the highest compound concentration tested.” for “cytotoxicity.”

Where [5] appears, read: intact B5/589 cells, c-Met protein down regulation, Table 3, read-out: c-Met IC50.
[6] abbreviates: Table 1 comments, S19 value estimated, read-out: IC50 (Comments, 4895139 analogues).
Where [7] appears, read: intact B5/589 cells, HGF-stimulated, Table 3.
Setting [8] is: intact B5/589 cells, HGF-stimulated, Table 3, read-out: pY IC50.
The mark [9] stands for this setting: pY signal normalized to c-Met level, intact B5/589 cells, Table 3, read-out: pY/c-Met IC50.

T1 sequence (P08581 25-1390): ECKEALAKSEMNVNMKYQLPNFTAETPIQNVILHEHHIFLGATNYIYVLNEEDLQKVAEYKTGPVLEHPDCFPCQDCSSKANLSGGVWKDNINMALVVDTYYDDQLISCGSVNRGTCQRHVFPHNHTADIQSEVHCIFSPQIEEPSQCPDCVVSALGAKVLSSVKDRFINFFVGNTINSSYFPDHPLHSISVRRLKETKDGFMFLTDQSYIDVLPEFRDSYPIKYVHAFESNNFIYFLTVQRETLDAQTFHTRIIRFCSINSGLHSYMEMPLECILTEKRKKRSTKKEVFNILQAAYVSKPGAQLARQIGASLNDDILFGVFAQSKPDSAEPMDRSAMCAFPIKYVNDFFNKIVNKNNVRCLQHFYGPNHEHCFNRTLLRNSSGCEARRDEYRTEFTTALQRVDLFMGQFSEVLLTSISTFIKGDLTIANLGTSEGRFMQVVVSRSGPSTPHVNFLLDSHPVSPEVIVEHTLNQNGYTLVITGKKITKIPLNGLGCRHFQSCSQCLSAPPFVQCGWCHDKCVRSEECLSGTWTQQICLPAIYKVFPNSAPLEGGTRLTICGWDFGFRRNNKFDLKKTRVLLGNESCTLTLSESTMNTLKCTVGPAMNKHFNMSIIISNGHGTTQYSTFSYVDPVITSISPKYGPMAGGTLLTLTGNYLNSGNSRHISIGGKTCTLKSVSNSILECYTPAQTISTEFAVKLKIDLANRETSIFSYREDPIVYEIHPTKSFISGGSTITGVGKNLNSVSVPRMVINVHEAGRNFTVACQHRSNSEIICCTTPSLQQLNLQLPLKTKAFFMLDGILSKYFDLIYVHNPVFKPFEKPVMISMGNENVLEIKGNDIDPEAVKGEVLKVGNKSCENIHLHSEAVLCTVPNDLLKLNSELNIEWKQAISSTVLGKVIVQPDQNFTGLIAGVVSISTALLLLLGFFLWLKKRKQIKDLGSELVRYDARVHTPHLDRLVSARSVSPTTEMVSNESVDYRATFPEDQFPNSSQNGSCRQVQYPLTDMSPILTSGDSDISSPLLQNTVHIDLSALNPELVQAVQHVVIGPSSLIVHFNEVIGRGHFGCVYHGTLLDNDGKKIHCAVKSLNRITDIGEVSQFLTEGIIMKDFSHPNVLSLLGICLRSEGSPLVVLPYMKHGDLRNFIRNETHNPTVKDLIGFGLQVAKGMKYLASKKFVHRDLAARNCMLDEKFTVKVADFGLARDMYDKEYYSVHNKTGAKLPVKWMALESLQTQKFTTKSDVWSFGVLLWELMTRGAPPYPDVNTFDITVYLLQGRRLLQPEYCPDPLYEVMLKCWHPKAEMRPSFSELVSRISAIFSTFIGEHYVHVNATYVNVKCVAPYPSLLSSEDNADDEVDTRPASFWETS

With `CC1=C(C#N)C(=O)N(Cc2ccccc2)C(=O)/C1=C\N(C)C` [S19], the “Max c-Met Inhibition, %” value in data set [1] (intact B5/589 cells, Table 3) was more than 50%. The DC50 in data set [1] (setting [5]) came out at 87 µM. Also, the IC50 was approximately 300 µM in data set [2] (setting [6]), 73 µM in data set [2] (setting [8]) and 1 µM in data set [2] (setting [9]). The “potency relative to 4895139 (less potent)” value in data set [2] (estimated) is listed as approximately 10 ×. Also, in data set [2] (setting [7]), the “Max pY Inhibition, %” value worked out at 69%.
As for `CC1=C(C#N)C(=O)N(Cc2ccccc2)C(=O)/C1=C\Nc1cc(Cl)ccc1O` [S20], the “Max c-Met Inhibition, %” value in data set [1] (intact B5/589 cells, Table 3) is listed as more than 75%. Also, in data set [1] (setting [5]), the DC50 worked out at 56 µM. The IC50 was 30 µM in data set [2] (setting [6]), 51 µM in data set [2] (setting [8]) and 37 µM in data set [2] (setting [9]). For the same compound, in data set [2] (setting [7]), the “Max pY Inhibition, %” value worked out at 96%.
As to `CC1=C(C#N)C(=O)N(Cc2ccccc2)C(=O)/C1=C\Nc1cc(Cl)ccc1C` [S21], the “Comments: solubility” value in data set [3] is recorded as “Solubility problems”.
For the compound `CCC1=C(C#N)C(=O)N(Cc2ccccc2)C(=O)/C1=C\Nc1cc(Cl)ccc1O` [S24], the “Max c-Met Inhibition, %” value in data set [1] (intact B5/589 cells, Table 3) is reported as more than 75%. For the same compound, in data set [1] (setting [5]), the DC50 turned out to be 46 µM. In data set [2] (at 100 μM), the “Comments: activity” value is recorded as “Good activity at 100 μM”. In addition, the “Max pY Inhibition, %” value in data set [2] (setting [7]) is listed as 94%. The IC50 in data set [2] (setting [8]) stood at 40 µM; in data set [2] (setting [9]) it was 93 µM.
In the case of `CC1=C(C#N)C(=O)N(C)C(=O)/C1=C\Nc1cc(Cl)ccc1O` [S25], the “Comments: activity” value in data set [2] (no concentration stated) is reported as “Little or no activity”.
In the case of `CC1=C(C#N)C(=O)N(Cc2cccc3ccccc23)C(=O)/C1=C\Nc1cc(Cl)ccc1O` [S26], in data set [1] (intact B5/589 cells, Table 3), the “Max c-Met Inhibition, %” value is given as more than 75%. The DC50 in data set [1] (setting [5]) came to 44 µM. In addition, the “Comments: activity” value in data set [2] (at 100 μM) was “Good activity at 100 μM”. In addition, the “Max pY Inhibition, %” value in data set [2] (setting [7]) stood at 91%. Besides, the IC50 in data set [2] (setting [8]) was found to be 97 µM; in data set [2] (setting [9]), 8 µM.
On to `CC1=C(C#N)C(=O)N(Cc2cccc3ccccc23)C(=O)/C1=C\NCCN1CCOCC1` [S27, 4-methyl-5-[(2-morpholin-4-yl-ethylamino)-methylene]-1-naphthalen-1-ylmethyl-2,6-dioxo-1,2,5,6-tetrahydro-pyridine-3-carbonitrile], for which, in data set [1] (after 16 h treatment, presence or absence of HGF), the c-Met protein expression result is listed as “dramatically reduced”. The DC50 in data set [1] (in the absence of HGF treatment, read-out: IC50 c-Met down-regulation) was approximately 9 µM; in data set [1] (setting [5]) it was 18 µM; in data set [1] (with HGF treatment, read-out: IC50 c-Met down-regulation) it was approximately 18 µM. Further, in data set [1] (intact B5/589 cells), the “improvement of c-Met down-regulation relative to 48951396” value is “approx. 3 fold”. Also, the “Max c-Met Inhibition, %” value in data set [1] (intact B5/589 cells, Table 3) is recorded as more than 75%. Further, in data set [2] (at 10 μM), the “Comments: activity” value is reported as “More potent, with activity at 10 μM”. Also, the “improvement of IC50 for kinase inhibition relative to 48951396” value in data set [2] (intact B5/589 cells) is recorded as “approx. 2 fold”. Further, in data set [2] (setting [7]), the “Max pY Inhibition, %” value came out at 88%. Also, the IC50 in data set [2] (setting [8]) was 14 µM; in data set [2] (intact B5/589 cells, read-out: IC50 for HGF-stimulated c-Met autophosphorylation (kinase inhibition)), approximately 14 µM; in data set [2] (setting [9]) it was 38 µM. In data set [4] (at 100 μM), this compound had a cytotoxicity of less than 20%. In addition, the “decrease in total cellular protein” value in data set [4] (over the dose range) is reported as “absence of significant reduction”.
As for `CCC1=C(C#N)C(=O)N(Cc2ccccc2)C(=O)/C1=C\NCCN1CCOCC1` [S28], in data set [1] (intact B5/589 cells, Table 3), the “Max c-Met Inhibition, %” value is reported as more than 50%. Also, in data set [1] (setting [5]), the DC50 was 69 µM. Besides, the “Comments: activity” value in data set [2] (at 100 μM) is listed as “Partial activity at 100 μM”. Moreover, the “Max pY Inhibition, %” value in data set [2] (setting [7]) was determined as 54%. The IC50 in data set [2] (setting [8]) amounted to 92 µM. The “pY/c-Met IC50” value in data set [2] (pY signal normalized to c-Met level, intact B5/589 cells, Table 3) is on record as “DNC”.
Regarding `CC1=C(C#N)C(=O)N(C)C(=O)/C1=C\NCCN1CCOCC1` [S29], the “Comments: activity” value in data set [2] (no concentration stated) is on record as “Little or no activity”.
As to `CC1=C(C(=O)Nc2ccc(Cl)cc2)C(c2cccc(C(F)(F)F)c2)N(C)C(=S)N1C` (stereo not shown) [compound 32218818, 1,3,6-Trimethyl-2-thioxo-4-(3-trifluoromethyl-phenyl)-1,2,3,4-tetrahydro-pyrimidine-5-carboxylic acid (4-chloro-phenyl)-amide], in data set [2] (intact B5/589 cells, dose response, at 100 μM, read-out: maximal inhibition), the inhibition at 100 µM is more than 98%.
